Experimental data from US20190047966A1, “NOVEL COMPOUND AND PHARMACOLOGICALLY ACCEPTABLE SALT THEREOF” (MEIJI SEIKA PHARMA CO., LTD., priority 2016, published 2019).
Structures can show the parent of a compound that is named as a salt.

What was measured:
[1] = target: T1, human histamine H4 receptor (Homo sapiens, UniProt Q9H3N8); assay: Evaluation of H4 Receptor Function ([35S]GTPγS binding); type: biochemical; settings: [35S]GTPγS binding, CHO-K1 membrane, 0.1 μM histamine; read-out: Evaluation of H4 Receptor Function (IC50 value, antagonistic effect)
T1 construct: purchased PerkinElmer Inc; host or cells: CHO-K1
Description: The antagonistic effect was evaluated by the method described below. Membrane preparation from recombinant CHO-K1 cell expressing the human histamine H4 receptor (PerkinElmer Inc.), 10 μM GDP, 0.1 μM histamine, and the compounds dissolved in DMSO were reacted at 30° C. for 20 minutes in a buffering solution containing 20 mM HEPES, pH 7.4, 100 mM NaCl, 10 mM MgCl2, 1 mM DTT, and 1 mM EDTA on an assay plate. Thereafter, SPA beads (Amersham plc) were added, followed by incubation for 60 minutes, and further 0.3 nM [^35S]GTPγS (PerkinElmer Inc.) was added, followed by incubation for 30 minutes.

[2] = target: T2, human histamine H1 receptor (Homo sapiens, UniProt P35367); assay: Evaluation of Human H1 Receptor Function (GeneBLAzer H1-NFAT-bla HEK 293T cells); type: cell-based; settings: histamine 30 nM, read-out: Evaluation of H1 Receptor Function (IC50 value, antagonistic effect)
T2 sequence (P35367 whole entry): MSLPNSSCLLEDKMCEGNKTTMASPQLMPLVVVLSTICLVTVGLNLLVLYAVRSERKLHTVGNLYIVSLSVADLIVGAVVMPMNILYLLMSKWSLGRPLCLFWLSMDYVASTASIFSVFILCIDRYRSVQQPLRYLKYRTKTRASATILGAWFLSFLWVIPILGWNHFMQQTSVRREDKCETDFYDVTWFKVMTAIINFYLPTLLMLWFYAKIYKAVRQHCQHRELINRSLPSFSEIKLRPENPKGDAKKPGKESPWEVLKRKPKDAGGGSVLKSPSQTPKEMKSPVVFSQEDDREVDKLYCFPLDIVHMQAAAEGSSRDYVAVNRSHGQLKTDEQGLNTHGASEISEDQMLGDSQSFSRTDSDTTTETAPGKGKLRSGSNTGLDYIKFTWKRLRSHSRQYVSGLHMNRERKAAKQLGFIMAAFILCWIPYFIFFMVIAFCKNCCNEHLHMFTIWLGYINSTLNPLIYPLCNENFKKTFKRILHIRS
Description: Test Example 3: Evaluation of Human H1 Receptor Function
The antagonistic effect was evaluated by the method described below. GeneBLAzer® H1-NFAT-bla HEK 293T-cells (Invitrogen Corporation, recombinant cells expressing the human histamine H1 receptor) were incubated at 37° C. for 30 minutes in the presence of the test compounds dissolved in DMSO in a high glucose Dulbecco's Modified Eagle Medium (GlutaMAX, containing 10% fetal bovine serum, 100 μM nonessential amino acids, 25 mM HEPES, 100 U/mL penicillin, and 100 μg/mL streptomycin), and histamine was added such that the final concentration became 30 nM, followed by further incubation for 4.5 hours. Then, a mixture of LiveBLAzer™ FRET-B/G Loading Kit (Invitrogen Corporation) and Solution D (Invitrogen Corporation) was added, followed by leaving to stand at room temperature for 2 hours under shaded conditions. Thereafter, the fluorescence intensity was measured under two conditions of 400 nm/460 nm and 400 nm/535 nm (excitation light/fluorescence) by using a multilabel counter (EnVision: PerkinElmer Inc.). The 50% inhibitory concentration (IC50 value) was calculated in accordance with (measured value−blank measured value at 400 nm/460 nm)/(measured value−blank measured value at 400 nm/535 nm) of each test sample.

[3] = target: T1, human histamine H4 receptor; assay: Evaluation of Human H4 Receptor Affinity ([3H]histamine binding); settings: inhibition constant Ki, CHO-K1 membrane preparation, read-out: Evaluation of H4 Receptor Affinity
Outline: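 Radioligand displacement: compound competes with 8.2 nM [3H]histamine at recombinant human H4 receptor in CHO-K1 membranes (Tris-HCl 50 mM pH 7.4, EDTA 1.25 mM; 25 °C, 90 min), with filter-bound radioactivity counted. IC50 was converted to Ki via Cheng-Prusoff (Kd 5.7 nM); 1.0 μM histamine set nonspecific binding.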

[4] = target: T2, human histamine H1 receptor; assay: Evaluation of Human H1 Receptor Affinity ([3H]pyrilamine binding); design: purchased PerkinElmer Inc; host or cells: CHO-K1; settings: inhibition constant Ki, CHO-K1 membrane preparation
Outline: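 Ki values are Cheng-Prusoff conversions of IC50 (Kd 1.1 nM) from radioligand displacement of 1.2 nM [3H]pyrilamine, with 1.0 μM pyrilamine defining nonspecific binding.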

| Compound | IC50 [1] [nM] | IC50 [2] [nM] | Ki [3] [nM] | Ki [4] [nM] |
| --- | --- | --- | --- | --- |
| Nc1nc2c(c(N3CCN(CCOCCOCC(=O)O)CC3)n1)CCc1cc(OCc3ccc(Cl)cc3)ccc1-2 [11(b), 2-(2-(2-(4-(2-amino-8-((4-chlorobenzyl)oxy)-5,6-dihydrobenzo[h]quinazolin-4-yl)piperazin-1-yl)ethoxy)ethoxy)acetic Acid] | 200 to 2000 | < 200 | < 100 | < 100 |
| CN1CCN(c2nc(N)nc3c2CCc2cc(NS(=O)(=O)c4ccc(OCC(F)(F)F)cc4)ccc2-3)CC1 [Example 191, N-(2-amino-4-(4-methylpiperazin-1-yl)-5,6-dihydrobenzo[h]quinazolin-8-yl)-4-(2,2,2-trifluoroethoxy)benzenesulfonamide] | – | – | < 100 | < 100 |
| Nc1nc2c(c(N3CCNCC3)n1)CCc1cc(NS(=O)(=O)c3ccc(OC(F)(F)F)cc3)ccc1-2 [Example 192, N-(2-amino-4-(4-piperazin-1-yl)-5,6-dihydrobenzo[h]quinazolin-8-yl)-4-(trifluoromethoxy)benezenesulfonamide hydrochloride] | – | – | < 100 | < 100 |
| CN1CCCN(c2nc(N)nc3c2CCc2cc(NS(=O)(=O)c4ccc(OC(F)(F)F)cc4)ccc2-3)CC1 [Example 193, N-(2-amino-4-(4-methyl-1,4-diazepan-1-yl)-5,6-dihydrobenzo[h]quinazolin-8-yl)-4-(trifluoromethoxy)benzenesulfonamide bis(trifluoroacetate)] | – | – | < 100 | < 100 |
| CN1CCN(c2nc(N)nc3c2CCc2cc(NS(=O)(=O)N4CCC(F)(F)CC4)ccc2-3)CC1 [Example 194, N-(2-amino-4-(4-methylpiperazin-1-yl)-5,6-dihydrobenzo[h]quinazolin-8-yl)-4,4-difluoropiperidine-1-sulfonamide] | – | – | 100 to 500 | 100 to 500 |
| CN1CCN(c2nc(N)nc3c2CCc2cc(NC(=O)Nc4ccc(Cl)cc4)ccc2-3)CC1 [Example 195, 1-(2-amino-4-(4-methylpiperazin-1-yl)-5,6-dihydrobenzo[h]quinazolin-8-yl)-3-(4-chlorophenyl)urea] | – | – | < 100 | 100 to 500 |
| CN1CCN(c2nc(N)nc3c2CCc2cc(OCc4ccc(Br)cc4)ccc2-3)CC1 [Example 197, 8-((4-bromobenzyl)oxy)-4-(4-methylpiperazin-1-yl)-5,6-dihydrobenzo[h]quinazolin-2-amine] | – | – | < 100 | < 100 |
| cis-3-(2-(4-(2-amino-8-((4-((trifluoromethyl)cyclohexyl)methoxy)-5,6-dihydrobenzo[h]quinazolin-4-yl)piperazin-1-yl)ethoxy)cyclobutane-l-carboxylic acid [Example 215] | – | – | 100 to 500 | < 100 |
| cis-3-(2-(4-(2-amino-8-((4-cyclopropylbenzyl)oxy)-5,6-dihydrobenzo[h]quinazolin-4-yl)piperazin-1-yl)ethoxy)cyclobutane-l-carboxylic acid [Example 214] | – | – | < 100 | < 100 |
| trans-4-((2-(4-(2-amino-8-((4-cyanobenzyl)oxy)-5,6-dihydrobenzo[h]quinazolin-4-yl)piperazin-1-yl)ethoxy)cyclohexane-l-carboxylic acid [Example 213] | – | – | 100 to 500 | < 100 |

Results, then the compound that gave them:

| IC50 [1] [nM] | IC50 [2] [nM] | Ki [3] [nM] | Ki [4] [nM] | Compound |
| --- | --- | --- | --- | --- |
| – | – | < 100 | < 100 | CN1CCN(c2nc(N)nc3c2CCc2cc(OCc4ccc(OC(F)(F)F)cc4)ccc2-3)CC1 [Example 198, 4-(4-methylpiperazin-1-yl)-8-((4-(trifluoromethoxy)benzyl)oxy)-5,6-dihydrobenzo[h]quinazolin-2-amine] |
| – | – | 100 to 500 | 100 to 500 | CN1CCN(c2nc(N)nc3c2CCc2cc(OCC4CCOCC4)ccc2-3)CC1 [Example 199, 4-(4-methylpiperazin-1-yl)-8-((tetrahydro-2H-pyran-4-yl)methoxy)-5,6-dihydrobenzo[h]quinazolin-2-amine] |
| – | – | < 100 | < 100 | CN1CCN(c2nc(N)nc3c2CCc2ccc(OCc4ccccc4)cc2-3)CC1 [Example 200, 9-(benzyloxy)-4-(4-methylpiperazin-1-yl)-5,6-dihydrobenzo[h]quinazolin-2-amine] |
| – | – | < 100 | 100 to 500 | CN1CCN(c2nc(N)nc3c2CCCc2ccc(OCc4ccccc4)cc2-3)CC1 [Example 202, 10-(benzyloxy)-4-(4-methylpiperazin-1-yl)-6,7-dihydro-5H-benzo[6,7]cyclohepta[1,2-d]pyrimidin-2-amine] |
| – | – | < 100 | < 100 | CN1CCN(c2nc(N)nc3c2oc2ccc(OCc4ccccc4)cc23)CC1 [Example 203, 8-(benzyloxy)-4-(4-methylpiperazin-1-yl)benzofuro[3,2-d]pyrimidin-2-amine] |
| – | – | < 100 | < 100 | CN1CCN(c2nc(N)nc3c2CCOc2cc(OCc4ccccc4)ccc2-3)CC1 [Example 204, 9-(benzyloxy)-4-(4-methylpiperazin-1-yl)-5,6-dihydrobenzo[2,3]oxepino[4,5-d]pyrimidin-2-amine] |
| – | – | < 100 | < 100 | Nc1nc2c(c(N3CCN(CCO[C@H]4C[C@@H](C(=O)O)C4)CC3)n1)CCc1cc(OCc3ccc(OC(F)(F)F)cc3F)ccc1-2 [Example 205, cis-3-(2-(4-(2-amino-8-((2-fluoro-4-(trifluoromethoxy)benzyl)oxy)-5,6-dihydrobenzo[h]quinazolin-4-yl)piperazin-1-yl)ethoxy)cyclobutane-1-carboxylic acid] |
| – | – | < 100 | < 100 | Nc1nc2c(c(N3CCN(CCO[C@H]4C[C@@H](C(=O)O)C4)CC3)n1)CCc1cc(OCc3ccc(OC(F)(F)F)c(F)c3)ccc1-2 [Example 206, cis-3-(2-(4-(2-amino-8-((3-fluoro-4-(trifluoromethoxy)benzyl)oxy)-5,6-dihydrobenzo[h]quinazolin-4-yl)piperazin-1-yl)ethoxy)cyclobutane-1-carboxylic acid] |
| – | – | < 100 | < 100 | COc1cc(OC(F)(F)F)ccc1COc1ccc2c(c1)CCc1c-2nc(N)nc1N1CCN(CCO[C@H]2C[C@@H](C(=O)O)C2)CC1 [Example 207, cis-3-(2-(4-(2-amino-8-((2-methoxy-4-(trifluoromethoxy)benzyl)oxy)-5,6-dihydrobenzo[h]quinazolin-4-yl)piperazin-1-yl)ethoxy)cyclobutane-1-carboxylic acid] |
| – | – | < 100 | < 100 | Cc1cc(OC(F)(F)F)ccc1COc1ccc2c(c1)CCc1c-2nc(N)nc1N1CCN(CCO[C@H]2C[C@@H](C(=O)O)C2)CC1 [Example 208, cis-3-(2-(4-(2-amino-8-((2-methyl-4-(trifluoromethoxy)benzyl)oxy)-5,6-dihydrobenzo[h]quinazolin-4-yl)piperazin-1-yl)ethoxy)cyclobutane-1-carboxylic acid] |
| – | – | < 100 | < 100 | Nc1nc2c(c(N3CCN(CCO[C@H]4C[C@@H](C(=O)O)C4)CC3)n1)CCc1cc(OCc3ccc(OC(F)F)cc3)ccc1-2 [Example 210, cis-3-(2-(4-(2-amino-8-((4-(difluoromethoxy)benzyl)oxy)-5,6-dihydrobenzo[h]quinazolin-4-yl)piperazin-1-yl)ethoxy)cyclobutane-1-carboxylic acid] |
| – | – | < 100 | < 100 | Nc1nc2c(c(N3CCN(CCO[C@H]4C[C@@H](C(=O)O)C4)CC3)n1)CCc1cc(OCc3ccc(SC(F)(F)F)cc3)ccc1-2 [Example 211] |
| – | – | < 100 | < 100 | Nc1nc2c(c(N3CCN(CCO[C@H]4C[C@@H](C(=O)O)C4)CC3)n1)CCc1cc(OCc3ccc(S(=O)(=O)C(F)(F)F)cc3)ccc1-2 [Example 212, cis-3-(2-(4-(2-amino-8-((4-((trifluoromethyl)sulfonyl)benzyl)oxy)-5,6-dihydrobenzo[h]quinazolin-4-yl)piperazin-1-yl)ethoxy)cyclobutane-l-carboxylic acid] |
